According to PubChem BioAssay AID330 (DTP/NCI, 2004):
“And” between values parts separate entries of the source, which are not always exact repeats. Equal entries are not always repeated. Toxic doses and inconclusive results are not listed.

Test system: P388 leukemia ip, CD2F1 mice, survival T/C
Test: NCI In Vivo Anticancer Drug Screen. Data for tumor model P388 Leukemia (intraperitoneal) in CD2F1 (CDF1) mice
Conditions: endpoint: median survival time, higher = longer survival
Procedure, shortened: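 Mice carrying the transplanted tumor received test compound or vehicle. Survival was recorded in each group, and the value is the treated-group measurement divided by that of the vehicle-treated control group.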

[1] = dose: 6.25 mg/kg/injection, schedule: Q01DX009 (ip), vehicle: saline with Tween-80
[2] = dose: 12.5 mg/kg/injection, schedule: Q01DX009 (ip), vehicle: saline with Tween-80
[3] = dose: 50.0 mg/kg/injection, schedule: Q01DX009 (ip), vehicle: saline with Tween-80
[4] = dose: 30.0 mg/kg/injection, schedule: Q01DX005 (ip), vehicle: Klucel (hydroxypropylcellulose) (HPC)
[5] = dose: 60.0 mg/kg/injection, schedule: Q01DX005 (ip), vehicle: Klucel (hydroxypropylcellulose) (HPC)
[6] = dose: 50.0 mg/kg/injection, schedule: Q01DX009 (ip), vehicle: saline
[7] = dose: 100.0 mg/kg/injection, schedule: Q01DX009 (ip), vehicle: saline
[8] = dose: 200.0 mg/kg/injection, schedule: Q01DX009 (ip), vehicle: saline
[9] = dose: 60.0 mg/kg/injection, schedule: Q01DX005 (ip), vehicle: saline with Tween-80
[10] = dose: 100.0 mg/kg/injection, schedule: Q01DX009 (ip), vehicle: saline with Tween-80
[11] = dose: 200.0 mg/kg/injection, schedule: Q01DX009 (ip), vehicle: saline with Tween-80

## O=C1OCC23CCC4C1C42CC1(CC3)OCCO1 (configuration not stated)
dose: 50.0 mg/kg/injection, schedule: Q01DX005 (ip), vehicle: saline
  T/C: 99 % of control
dose: 100.0 mg/kg/injection, schedule: Q01DX005 (ip), vehicle: saline
  T/C: 101 % of control
dose: 200.0 mg/kg/injection, schedule: Q01DX005 (ip), vehicle: saline
  T/C: 98 % of control

## O=C[c-]1[c-][c-][c-][c-]1.[Fe+2].[c-]1[c-][c-][cH-][c-]1
[1]
  T/C: 106 % of control
[2]
  T/C: 95 % of control
dose: 25.0 mg/kg/injection, schedule: Q01DX009 (ip), vehicle: saline with Tween-80
  T/C: 97 % of control
[3]
  T/C: 99 % of control

## CC(=O)OC1C=CCC2C(=O)OC(=O)C12 (configuration not stated)
[4]
  T/C: 103 % of control and 90 % of control
[5]
  T/C: 100 % of control
dose: 120.0 mg/kg/injection, schedule: Q01DX005 (ip), vehicle: Klucel (hydroxypropylcellulose) (HPC)
  T/C: 105 % of control and 90 % of control

## COC(=O)CS(=O)(=O)CCCS(=O)(=O)CC(=O)OC
[6]
  T/C: 105 % of control
[7]
  T/C: 99 % of control
[8]
  T/C: 103 % of control

## O=c1[nH]c(=O)c2nc(-c3ccc(Cl)c(Cl)c3)cnc2[nH]1
dose: 100.0 mg/kg/injection, schedule: Q01DX001 (ip), vehicle: saline
  T/C: 100 % of control
dose: 200.0 mg/kg/injection, schedule: Q01DX001 (ip), vehicle: saline
  T/C: 116 % of control
dose: 400.0 mg/kg/injection, schedule: Q01DX001 (ip), vehicle: saline
  T/C: 91 % of control

## C=CCOCN1c2cc(OC)c([C@@]3(C(=O)OC)C[C@@H]4CN(CCc5c3[nH]c3ccccc53)C[C@](O)(CC)C4)cc2[C@@]23CCN4CC=C[C@@](CC)([C@@H](OC(C)=O)[C@](O)(C(=O)OC)[C@H]12)[C@H]43
dose: 1.0 mg/kg/injection, schedule: Q01DX001 (ip), vehicle: water
  T/C: 109 % of control
dose: 2.0 mg/kg/injection, schedule: Q01DX001 (ip), vehicle: water
  T/C: 111 % of control
dose: 4.0 mg/kg/injection, schedule: Q01DX001 (ip), vehicle: water
  T/C: 115 % of control
dose: 32.0 mg/kg/injection, schedule: Q01DX001 (ip), vehicle: other
  T/C: 158 % of control

## Cc1ccc(/C=C2/C(=O)N(c3ccccc3)N=C2c2ccccc2)cc1
dose: 1.87 mg/kg/injection, schedule: Q01DX005 (ip), vehicle: saline with Tween-80
  T/C: 110 % of control
dose: 3.75 mg/kg/injection, schedule: Q01DX005 (ip), vehicle: saline with Tween-80
  T/C: 113 % of control
dose: 3.75 mg/kg/injection, schedule: Q01DX005 (ip), vehicle: saline
  T/C: 95 % of control
dose: 7.5 mg/kg/injection, schedule: Q01DX005 (ip), vehicle: saline with Tween-80
  T/C: 113 % of control
dose: 15.0 mg/kg/injection, schedule: Q01DX005 (ip), vehicle: saline with Tween-80
  T/C: 110 % of control
dose: 15.0 mg/kg/injection, schedule: Q01DX005 (ip), vehicle: saline
  T/C: 100 % of control
dose: 30.0 mg/kg/injection, schedule: Q01DX005 (ip), vehicle: saline with Tween-80
  T/C: 109 % of control
[9]
  T/C: 108 % of control

## CSC(=S)n1nc(-c2ccccc2)c(N=Nc2cccc(F)c2)c1-c1ccccc1
dose: 100.0 mg/kg/injection, schedule: Q04DX002 (ip), vehicle: saline with Tween-80
  T/C: 100 % of control
dose: 200.0 mg/kg/injection, schedule: Q04DX002 (ip), vehicle: saline with Tween-80
  T/C: 97 % of control
dose: 400.0 mg/kg/injection, schedule: Q04DX002 (ip), vehicle: saline with Tween-80
  T/C: 87 % of control

## COc1ccc(Nc2cc[nH]c(=O)c2NC(C)=O)cc1
[9]
  T/C: 100 % of control
dose: 120.0 mg/kg/injection, schedule: Q01DX005 (ip), vehicle: saline with Tween-80
  T/C: 96 % of control
dose: 240.0 mg/kg/injection, schedule: Q01DX005 (ip), vehicle: saline with Tween-80
  T/C: 94 % of control

## CC(C)=N/N=C(/N)[Se]
dose: 3.12 mg/kg/injection, schedule: Q01DX009 (ip), vehicle: saline with Tween-80
  T/C: 95 % of control
[1]
  T/C: 103 % of control
[2]
  T/C: 97 % of control

## CCCCCCC(=O)/C=C/c1cccc(OCc2ccc(Cl)cc2)c1
[3]
  T/C: 101 % of control
[10]
  T/C: 93 % of control
[11]
  T/C: 101 % of control

## C=C(C(=O)N(C(C)C)C(C)C)C(C)CC(C)C(=O)N(C(C)C)C(C)C (configuration not stated)
dose: 50.0 mg/kg/injection, schedule: Q04DX002 (ip), vehicle: Klucel (hydroxypropylcellulose) (HPC)
  T/C: 99 % of control
dose: 100.0 mg/kg/injection, schedule: Q04DX002 (ip), vehicle: Klucel (hydroxypropylcellulose) (HPC)
  T/C: 104 % of control
dose: 200.0 mg/kg/injection, schedule: Q04DX002 (ip), vehicle: Klucel (hydroxypropylcellulose) (HPC)
  T/C: 107 % of control
dose: 400.0 mg/kg/injection, schedule: Q04DX002 (ip), vehicle: Klucel (hydroxypropylcellulose) (HPC)
  T/C: 104 % of control

## CCN(CC)CCCCCNc1cc(Cl)c(Cl)cc1[N+](=O)[O-]
dose: 12.5 mg/kg/injection, schedule: Q01DX009 (ip), vehicle: saline
  T/C: 99 % of control
dose: 25.0 mg/kg/injection, schedule: Q01DX009 (ip), vehicle: saline
  T/C: 95 % of control
[6]
  T/C: 107 % of control

## CC1(C)N=C(NN=C2CCCCC2)SP1(=O)NNc1ncccn1 (configuration not stated)
dose: 15.0 mg/kg/injection, schedule: Q01DX005 (ip), vehicle: Klucel (hydroxypropylcellulose) (HPC)
  T/C: 102 % of control
[4]
  T/C: 103 % of control
[5]
  T/C: 98 % of control and 99 % of control

## O=C(Nc1ccc(C2=NCCCN2)cc1)c1ccc(C(=O)Nc2ccc(C3=NCCCN3)cc2)cc1
dose: 1.25 mg/kg/injection, schedule: Q04DX003 (ip), vehicle: saline with Tween-80
  T/C: 100 % of control
dose: 2.5 mg/kg/injection, schedule: Q04DX003 (ip), vehicle: saline with Tween-80
  T/C: 113 % of control
dose: 5.0 mg/kg/injection, schedule: Q01DX009 (ip), vehicle: saline
  T/C: 300 % of control
dose: 10.8 mg/kg/injection, schedule: Q04DX003 (ip), vehicle: Klucel (hydroxypropylcellulose) (HPC)
  T/C: 151 % of control
dose: 12.0 mg/kg/injection, schedule: Q04DX003 (ip), vehicle: Klucel (hydroxypropylcellulose) (HPC)
  T/C: 151 % of control
dose: 18.0 mg/kg/injection, schedule: Q04DX003 (ip), vehicle: Klucel (hydroxypropylcellulose) (HPC)
  T/C: 165 % of control and 186 % of control and 198 % of control
dose: 20.0 mg/kg/injection, schedule: Q01DX009 (ip), vehicle: saline
  T/C: 100 % of control
dose: 20.0 mg/kg/injection, schedule: Q04DX003 (ip), vehicle: Klucel (hydroxypropylcellulose) (HPC)
  T/C: 185 % of control
dose: 20.0 mg/kg/injection, schedule: Q04DX003 (ip), vehicle: saline with Tween-80
  T/C: 204 % of control
dose: 30.0 mg/kg/injection, schedule: Q04DX003 (ip), vehicle: Klucel (hydroxypropylcellulose) (HPC)
  T/C: 201 % of control
dose: 33.3 mg/kg/injection, schedule: Q04DX003 (ip), vehicle: Klucel (hydroxypropylcellulose) (HPC)
  T/C: 250 % of control
dose: 50.0 mg/kg/injection, schedule: Q04DX003 (ip), vehicle: Klucel (hydroxypropylcellulose) (HPC)
  T/C: 91 % of control

## COc1ccc(C2CC(=O)c3c(O)cc(OC4OC(COC5OC(C)C(O)C(O)C5O)C(O)C(O)C4O)cc3O2)cc1O (configuration not stated)
dose: 50.0 mg/kg/injection, schedule: Q01DX005 (ip), vehicle: saline with Tween-80
  T/C: 94 % of control
dose: 100.0 mg/kg/injection, schedule: Q01DX005 (ip), vehicle: saline with Tween-80
  T/C: 100 % of control
dose: 200.0 mg/kg/injection, schedule: Q01DX005 (ip), vehicle: saline with Tween-80
  T/C: 92 % of control

## C/C=C(\C)C(=O)OC1CC(C)(C)C2C3C(=O)C=C(C)C2C3(C)C1OC(=O)/C(C)=C/C (configuration not stated)
dose: 75.0 mg/kg/injection, schedule: Q01DX001 (ip), vehicle: Klucel (hydroxypropylcellulose) (HPC)
  T/C: 97 % of control
dose: 150.0 mg/kg/injection, schedule: Q01DX001 (ip), vehicle: Klucel (hydroxypropylcellulose) (HPC)
  T/C: 98 % of control
dose: 300.0 mg/kg/injection, schedule: Q01DX001 (ip), vehicle: Klucel (hydroxypropylcellulose) (HPC)
  T/C: 101 % of control

## CC[C@H]1OC(=O)[C@H](C)[C@@H](OC2CC(C)(OC)C(O)C(C)O2)[C@H](C)[C@@H](OC2OC(C)CC(N(C)C)C2OC(=O)CCC2CCCC2)[C@](C)(O)C[C@@H](C)C(=O)[C@H](C)[C@@H](O)[C@]1(C)O (some centres not stated)
dose: 50.0 mg/kg/injection, schedule: Q01DX005 (ip), vehicle: Klucel (hydroxypropylcellulose) (HPC)
  T/C: 96 % of control
dose: 100.0 mg/kg/injection, schedule: Q01DX005 (ip), vehicle: Klucel (hydroxypropylcellulose) (HPC)
  T/C: 100 % of control
dose: 200.0 mg/kg/injection, schedule: Q01DX005 (ip), vehicle: Klucel (hydroxypropylcellulose) (HPC)
  T/C: 93 % of control

## O=C(NC(=O)C(F)(F)F)Nc1cc(F)ccc1F
[3]
  T/C: 99 % of control
[10]
  T/C: 105 % of control
[11]
  T/C: 107 % of control

## O=c1[nH]c(N2CCNCC2)nc2ccccc12
[6]
  T/C: 102 % of control
[7]
  T/C: 101 % of control
[8]
  T/C: 104 % of control
